Results as given in US7432392B2, “Ester derivatives and medical use thereof” (Japan Tobacco Inc., priority 2003, dated 2008).
pIC50: −log10 of the molar value.

target: T1, Microsomal triglyceride transfer protein (MTP) from bovine liver (Bos taurus, UniProt P55156); assay: Inhibition of interliposomal triglyceride (TG) transfer activity by MTP; type: biochemical; conditions: MTP-mediated TG transfer between donor and acceptor liposomes, 37° C., one hour
T1 construct: the purified MTP was used for the test; from tissue; host or cells: bovine liver
T1 sequence (P55156 12-887): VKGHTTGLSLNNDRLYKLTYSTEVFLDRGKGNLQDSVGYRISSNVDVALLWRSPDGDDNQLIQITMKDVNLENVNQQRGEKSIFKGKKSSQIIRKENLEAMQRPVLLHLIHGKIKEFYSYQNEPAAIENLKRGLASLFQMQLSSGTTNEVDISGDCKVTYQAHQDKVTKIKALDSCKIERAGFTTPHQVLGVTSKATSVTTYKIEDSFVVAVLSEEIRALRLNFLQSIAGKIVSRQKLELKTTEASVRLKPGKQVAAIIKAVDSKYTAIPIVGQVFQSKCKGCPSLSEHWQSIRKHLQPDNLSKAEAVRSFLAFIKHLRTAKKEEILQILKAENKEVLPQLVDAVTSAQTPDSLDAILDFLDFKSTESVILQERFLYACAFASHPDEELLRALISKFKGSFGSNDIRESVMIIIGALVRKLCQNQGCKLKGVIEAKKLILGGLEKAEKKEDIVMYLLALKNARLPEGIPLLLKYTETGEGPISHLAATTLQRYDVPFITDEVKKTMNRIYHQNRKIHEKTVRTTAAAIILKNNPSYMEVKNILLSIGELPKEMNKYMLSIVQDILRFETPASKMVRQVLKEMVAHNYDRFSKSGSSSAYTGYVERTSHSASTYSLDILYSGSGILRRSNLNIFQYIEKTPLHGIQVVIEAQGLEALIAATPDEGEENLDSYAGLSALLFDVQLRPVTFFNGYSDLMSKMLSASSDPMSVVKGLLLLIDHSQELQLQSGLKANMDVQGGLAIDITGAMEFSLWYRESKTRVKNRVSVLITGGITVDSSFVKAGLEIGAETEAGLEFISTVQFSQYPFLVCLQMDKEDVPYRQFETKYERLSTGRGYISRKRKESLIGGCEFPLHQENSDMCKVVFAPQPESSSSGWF
T1 sequence (P05307 21-510 partner): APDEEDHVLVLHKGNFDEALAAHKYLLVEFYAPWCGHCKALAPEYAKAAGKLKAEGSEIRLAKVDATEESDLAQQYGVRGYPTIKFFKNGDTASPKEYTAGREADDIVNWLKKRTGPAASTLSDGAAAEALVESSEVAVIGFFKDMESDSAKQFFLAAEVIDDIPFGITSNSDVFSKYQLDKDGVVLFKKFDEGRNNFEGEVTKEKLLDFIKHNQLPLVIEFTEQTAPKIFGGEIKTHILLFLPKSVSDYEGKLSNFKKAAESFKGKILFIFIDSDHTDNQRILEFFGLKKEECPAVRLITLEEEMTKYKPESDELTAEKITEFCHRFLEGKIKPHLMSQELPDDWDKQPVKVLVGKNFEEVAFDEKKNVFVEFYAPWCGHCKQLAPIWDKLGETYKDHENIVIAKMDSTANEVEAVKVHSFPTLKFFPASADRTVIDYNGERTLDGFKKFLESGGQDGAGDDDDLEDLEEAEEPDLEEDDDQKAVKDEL
Procedure: Microsomal triglyceride transfer protein (MTP) from bovine liver was partially purified in such a way described below. A buffer (50 mM Tris, 250 mM sucrose, 1 mM EDTA, 0.02% NaN3 (pH 7.4)) for making a homogenate preparation was added to bovine liver, and the mixture was homogenated under ice-cooling, then centrifuged at 10,000×g (4° C., 30 minutes) The supernatant was adjusted to pH 5.1 with hydrochloric acid, and stirred for 30 minutes. The solution was further centrifuged at 10,000×g (4° C., 30 minutes), and 1 mM Tris buffer was added to the precipitated residue, and the mixture was adjusted to pH 8.6 with sodium hydroxide. After addition of 2.7 M ammonium sulfate solution, the mixture was stirred for 30 minutes, then centrifuged at 10,000×g (4° C., 40 minutes). The resulting supernatant was served as a crude extraction fraction of MTP and stored at −80° C. under freezing. In its practical use, the crude extraction fraction of MTP was purified by column chromatography on diethylaminoethyl (DEAE) Sepharose using FPLC (Fast Performance Liquid Chromatography) system, and the purified MTP was used for the test.
Small unilamellar-vesicle (SUV) liposome (donor, 0.25 mol % triolein, 5 mol % cardiolipin) labeled with ^14C-triolein and non-labeled SUV liposome (acceptor, 0.25 mol % triolein) were prepared. A fixed amount of donor and acceptor, and MTP were mixed with a sample dissolved in DMSO or with DMSO. The mixture was incubated in a 15 mM Tris hydrochloride buffer (pH 7.4) containing 40 mM sodium chloride, 1 mM EDTA (ethylenediaminetetraacetic acid), 0.02% NaN3 and 0.5% bovine serum albumin at 37° C. for one hour. After completion of the incubation, a suspension of DEAE cellulose (50% v/v) in 15 mM Tris hydrochloride buffer (pH 7.4) was added to the above solution, and the mixture was centrifuged to separate the donor and the acceptor. The radioactivity in the acceptor was measured by liquid scintillation counter. The value obtained by subtracting the radioactivity in the blank from the amount of radioactivity in the acceptor of a DMSO group was determined as MTP-mediated TG transfer activity, and it was compared with the value obtained by subtracting the radioactivity in the blank from the radioactivity in a sample group. The blank was prepared by adding 15 mM Tris-HCl buffer (pH 7.4) in place of MTP. Inhibition rate (%) was calculated from the values obtained according to the following equation.
Inhibition rate (%)=100×(1 minus ((radioactivity of sample group minus radioactivity of blank group)/(radioactivity of DMSO group minus radioactivity of blank group))). 50% Inhibition rate (IC50) was determined on the basis of the above equation.

pIC50 | Compound
> 8.00 | CCOC(=O)C(COC(=O)Cc1ccc(NC(=O)c2ccc(C)cc2-c2ccc(C(F)(F)F)cc2)c(OC(C)=O)c1)(C(=O)OCC)c1ccccc1 [Example 1-5]
> 8.00 | CCOC(=O)C(COC(=O)Cc1ccc(NC(=O)c2ccc(C)cc2-c2ccc(C(F)(F)F)cc2)c(OC(=O)CC)c1)(C(=O)OCC)c1ccccc1 [Example 1-6]
> 8.00 | CCCC(=O)Oc1cc(CC(=O)OCC(C(=O)OCC)(C(=O)OCC)c2ccccc2)ccc1NC(=O)c1ccc(C)cc1-c1ccc(C(F)(F)F)cc1 [Example 1-7]
> 8.00 | CCOC(=O)C(COC(=O)Cc1ccc(N(C)C(=O)c2ccccc2-c2ccc(C(F)(F)F)cc2)c(OC(C)=O)c1)(C(=O)OCC)c1ccccc1 [Example 1-8]
> 8.00 | CCOC(=O)C(COC(=O)Oc1cc(C(=O)N(C)C)c(NC(=O)c2ccccc2-c2ccc(C(F)(F)F)cc2)cc1F)(C(=O)OCC)c1ccccc1 [Example 2, 2-{5-Dimethylcarbamoyl-2-fluoro-4-[(4′-trifluoromethyl-biphenyl-2-carbonyl)amino]phenoxycarbonyloxymethyl}-2-phenylmalonic acid diethyl ester]
> 8.00 | CCOC(=O)C(COC(=O)Oc1ccc2c(c1)N(C(C)C)C(=O)CN2C(=O)c1ccccc1-c1ccc(C(F)(F)F)cc1)(C(=O)OCC)c1ccccc1 [Example 2-2, 2-[4-Isopropyl-3-oxo-1-(4′-trifluoromethylbiphenyl-2-carbonyl)-1,2,3,4-tetrahydroquinoxalin-6-yloxycarbonyloxymethyl]-2-phenylmalonic acid diethyl ester]
7.00 to 8.00 | CCOC(=O)C(COC(=O)Oc1ccc2c(c1)CCN2C(=O)c1ccccc1-c1ccc(C(F)(F)F)cc1)(C(=O)OCC)c1ccccc1 [Example 2-3]
> 8.00 | CCOC(=O)C(COC(=O)Oc1ccc(NC(=O)c2ccccc2-c2ccc(C(F)(F)F)cc2)c(C(=O)N(C)C)c1)(C(=O)OCC)c1ccccc1 [Example 2-4]
> 8.00 | CCOC(=O)C(COC(=O)OCc1ccc(NC(=O)c2ccccc2-c2ccc(C(F)(F)F)cc2)c(C(=O)N(C)C)c1)(C(=O)OCC)c1ccccc1 [Example 2-5]
> 8.00 | CCOC(=O)C(COC(=O)Oc1cc(C(=O)N(C)C)c(NC(=O)c2ccccc2-c2ccc(C(F)(F)F)cc2)cc1Cl)(C(=O)OCC)c1ccccc1 [Example 2-6]
> 8.00 | CCOC(=O)C(COC(=O)Oc1ccc(NC(=O)c2ccccc2-c2ccc(C(F)(F)F)cc2)c(C(=O)N(C)C)c1)(C(=O)OCC)c1cccs1 [Example 2-7]
> 8.00 | CCOC(=O)C(COC(=O)Oc1ccc(NC(=O)c2ccc(C)cc2-c2ccc(C(F)(F)F)cc2)c(C(=O)N(C)C)c1)(C(=O)OCC)c1ccccc1 [Example 2-8]
> 8.00 | CCOC(=O)C(COC(=O)Oc1ccc(NC(=O)c2ccc(C)cc2-c2ccc(C(F)(F)F)cc2)c(C(=O)N(C)C)c1)(C(=O)OCC)c1cccs1 [Example 2-9]
> 8.00 | CCNC(=O)C(COC(=O)Oc1ccc(NC(=O)c2ccccc2-c2ccc(C(F)(F)F)cc2)c(C(=O)N(C)C)c1)(C(=O)NCC)c1ccccc1 [Example 2-10]
6.00 to 7.00 | CCNC(=O)C(COC(=O)Oc1cc(C(=O)N(C)C)c(NC(=O)c2ccccc2-c2ccc(C(F)(F)F)cc2)cc1F)(C(=O)NCC)c1ccccc1 [Example 2-11]
> 8.00 | CCOC(=O)C(COC(=O)Oc1ccc(NC(=O)c2ccccc2-c2ccc(C(F)(F)F)cc2)c(C(=O)N(C)CC)c1)(C(=O)OCC)c1ccccc1 [Example 2-12]
> 8.00 | CCCN(C)C(=O)c1cc(OC(=O)OCC(C(=O)OCC)(C(=O)OCC)c2ccccc2)ccc1NC(=O)c1ccccc1-c1ccc(C(F)(F)F)cc1 [Example 2-13]
> 8.00 | CCOC(=O)C(COC(=O)Oc1ccc(NC(=O)c2ccccc2-c2ccc(C(F)(F)F)cc2)c(C(=O)N2CCCC2)c1)(C(=O)OCC)c1ccccc1 [Example 2-14]
> 8.00 | CCOC(=O)C(COC(=O)Oc1cc(C(=O)N(C)C)c(NC(=O)c2ccccc2-c2ccc(C(F)(F)F)cc2)cc1C)(C(=O)OCC)c1ccccc1 [Example 2-15]
